Patent publication US10351575B2, “Bicyclic urea, thiourea, guanidine and cyanoguanidine compounds useful for the treatment of pain” (Array BioPharma Inc., priority 2012, dated 2019)
pIC50: −log10 of the molar value.

Target: His-tagged recombinant human TrkA (Homo sapiens (Human), UniProt P04629)
Test: TrkA LanthaScreen Eu Kinase Binding Assay
Settings: averaged IC50; TR-FRET binding, 60 min, 22° C.; read-out: TrkA Enzyme IC50
Summary of the method: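 TR-FRET binding: 5 nM His-tagged human TrkA cytoplasmic domain with 4 nM Alexa-Fluor Tracer 236, 2 nM biotin anti-His and 2 nM Eu-streptavidin. Buffer was 25 mM MOPS pH 7.5, 5 mM MgCl2, 0.005% Triton X-100, 2% DMSO, 60 min at 22° C. IC50 from a four-parameter fit of ratiometric percent of control.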

Chain of His-tagged recombinant human TrkA (P04629 440-796): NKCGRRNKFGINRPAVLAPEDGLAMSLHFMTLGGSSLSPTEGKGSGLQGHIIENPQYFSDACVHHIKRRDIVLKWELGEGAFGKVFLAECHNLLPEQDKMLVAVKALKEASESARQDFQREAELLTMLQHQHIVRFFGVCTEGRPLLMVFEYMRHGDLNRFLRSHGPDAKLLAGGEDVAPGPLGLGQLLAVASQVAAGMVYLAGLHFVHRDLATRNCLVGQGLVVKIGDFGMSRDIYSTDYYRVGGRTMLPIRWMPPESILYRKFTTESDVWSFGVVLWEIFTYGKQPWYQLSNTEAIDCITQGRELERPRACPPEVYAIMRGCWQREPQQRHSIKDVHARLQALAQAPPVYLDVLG

**Q.** Cc1c(-c2cnn(C)c2)nn(-c2ccccc2)c1NC(=O)NC1CCCCc2ccccc21 (centres unmarked) [Example 6, 1-(1′,4-dimethyl-1-phenyl-1H,1′H-3,4′-bipyrazol-5-yl)-3-(6,7,8,9-tetrahydro-5H-benzo[7]annulen-5-yl)urea] was tested. Which pIC50 did it give?
**A.** Its pIC50 is over 7.00.

**Q.** How did the pIC50 turn out when Cc1nn(-c2ccccc2)c(NC(=O)N[C@@H]2c3ccccc3CC[C@H]2O)c1C (relative stereo) [Example 121, 1-(3,4-dimethyl-1-phenyl-1H-pyrazol-5-yl)-3-(trans-2-hydroxy-1,2,3,4-tetrahydronaphthalen-1-yl)urea] was run?
**A.** The pIC50 was over 7.00.

**Q.** Cc1c(OC[C@H]2CN(C)CCO2)nn(-c2ccccc2)c1NC(=O)N[C@@H]1c2ccccc2C(C)(C)C[C@H]1O [Example 74, 1-((1R,2R)-2-hydroxy-4,4-dimethyl-1,2,3,4-tetrahydronaphthalen-1-yl)-3-(4-methyl-3-(((R)-4-methylmorpholin-2-yl)methoxy)-1-phenyl-1H-pyrazol-5-yl)urea] was tested. Which pIC50 did it give?
**A.** The pIC50 was over 7.00.

**Q.** Cc1c(-c2cnn(C)c2)nn(-c2ccccc2)c1NC(=O)N[C@@H]1c2ccccc2OC2(CCC2)[C@H]1O (relative stereo) [Example 160, 1-(1′,4-dimethyl-1-phenyl-1H,1′H-[3,4′-bipyrazol]-5-yl)-3-(trans-3-hydroxyspiro[chroman-2,1′-cyclobutan]-4-yl)urea] was tested. Which pIC50 did it give?
**A.** Its pIC50 is over 7.00.

**Q.** Cc1c(-c2cn(C)cn2)nn(-c2ccccc2)c1NC(=O)NC1CN(CC(F)(F)F)Cc2ccccc21 (centres unmarked) [Example 27, 1-(4-methyl-3-(1-methyl-1H-imidazol-4-yl)-1-phenyl-1H-pyrazol-5-yl)-3-(2-(2,2,2-trifluoroethyl)-1,2,3,4-tetrahydroisoquinolin-4-yl)urea] was tested. Which pIC50 did it give?
**A.** Its pIC50 is over 7.00.

**Q.** How did the pIC50 turn out when CO[C@@H]1[C@@H](O)[C@H](NC(=O)Nc2c(C)c(OCC3CCN(C)CC3)nn2-c2ccccc2)c2ccccc2C1(C)C [Example 158, 1-((r-1,t-2,c-3)-2-hydroxy-3-methoxy-4,4-dimethyl-1,2,3,4-tetrahydronaphthalen-1-yl)-3-(4-methyl-3-((1-methylpiperidin-4-yl)methoxy)-1-phenyl-1H-pyrazol-5-yl)urea] was run?
**A.** Its pIC50 is over 7.00.

**Q.** Cc1c(-c2cnn(C)c2)nn(-c2ccccc2)c1NC(=O)NC1CCC(C)(C)c2ccc(Br)cc21 (centres unmarked) [Example 16, 1-(7-bromo-4,4-dimethyl-1,2,3,4-tetrahydronaphthalen-1-yl)-3-(1′,4-dimethyl-1-phenyl-1H,1′H-[3,4′-bipyrazol]-5-yl)urea] was tested. Which pIC50 did it give?
**A.** The pIC50 was over 7.00.

**Q.** How did the pIC50 turn out when CCOc1ncc(-c2nn(-c3ccccc3)c(NC(=O)N[C@@H]3c4ccccc4C[C@H]3O)c2C)cn1 [Example 67, 1-(3-(2-ethoxypyrimidin-5-yl)-4-methyl-1-phenyl-1H-pyrazol-5-yl)-3-((1R,2R)-2-hydroxy-2,3-dihydro-1H-inden-1-yl)urea] was run?
**A.** Its pIC50 is over 7.00.

**Q.** COc1ncc(-c2nn(-c3ccccc3)c(NC(=O)N[C@@H]3c4ccccc4CCC[C@H]3O)c2C)cn1 (relative stereo) [Example 128, 1-(trans-6-hydroxy-6,7,8,9-tetrahydro-5H-benzo[7]annulen-5-yl)-3-(3-(2-methoxypyrimidin-5-yl)-4-methyl-1-phenyl-1H-pyrazol-5-yl)urea] was tested. Which pIC50 did it give?
**A.** Its pIC50 is 6.00 to 7.00.

**Q.** How did the pIC50 turn out when Cc1c(OC[C@H]2CN(C)CCO2)nn(-c2ccccc2)c1NC(=O)NC1c2ccccc2C2(CC2)[C@@H]1O (stereo partly drawn) [Example 78, 1-(trans-2′-hydroxy-2,3′-dihydrospiro[cyclopropane-1,1′-inden]-3′-yl)-3-(4-methyl-3-(((R)-4-methylmorpholin-2-yl)methoxy)-1-phenyl-1H-pyrazol-5-yl)urea] was run?
**A.** The pIC50 was over 7.00.

**Q.** How did the pIC50 turn out when Cc1c(-c2ccc(=O)n(C)c2)nn(-c2ccccc2)c1NC(=O)N[C@@H]1c2cc(F)ccc2C(C)(C)C[C@H]1O [Example 93, 1-((1,2-trans)-7-fluoro-2-hydroxy-4,4-dimethyl-1,2,3,4-tetrahydronaphthalen-1-yl)-3-(4-methyl-3-(1-methyl-6-oxo-1,6-dihydropyridin-3-yl)-1-phenyl-1H-pyrazol-5-yl)urea] was run?
**A.** The pIC50 was over 7.00.
